# Results from patent publication US6762052B1, “DNA sequence encoding flavin-containing monooxygenase” (priority 1993, dated 2004).
# Entries after “also recorded” stand apart in the source; their conditions may differ.
# What was measured:
# [1] = biological target: T1, adult human liver flavin-containing monooxygenase (form 3) (Homo sapiens, UniProt P31513, E158K); test: N- and S-oxygenation by cDNA-expressed HLFMO 3 (solubilized protein from E. coli transformed with pTrcHLFMO 3), HPLC
# T1 sequence (P31513 1-532 E158K): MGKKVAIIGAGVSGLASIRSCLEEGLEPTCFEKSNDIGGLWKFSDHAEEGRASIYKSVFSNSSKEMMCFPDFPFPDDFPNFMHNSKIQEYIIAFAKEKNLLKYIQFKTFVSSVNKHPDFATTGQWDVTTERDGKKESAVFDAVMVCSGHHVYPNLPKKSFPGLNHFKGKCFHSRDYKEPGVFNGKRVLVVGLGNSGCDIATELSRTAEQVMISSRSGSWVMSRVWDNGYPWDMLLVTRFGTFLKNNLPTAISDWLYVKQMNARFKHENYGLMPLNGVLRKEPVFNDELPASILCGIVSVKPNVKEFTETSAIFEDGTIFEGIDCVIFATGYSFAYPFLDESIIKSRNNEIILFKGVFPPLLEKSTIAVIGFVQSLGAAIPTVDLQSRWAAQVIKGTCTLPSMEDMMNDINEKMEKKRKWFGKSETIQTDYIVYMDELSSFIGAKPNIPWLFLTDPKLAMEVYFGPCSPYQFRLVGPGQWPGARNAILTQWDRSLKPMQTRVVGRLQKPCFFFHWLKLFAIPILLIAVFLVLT
# Procedure: In all cases examined, product formation was directly determined by HPLC analysis of organic extracts.
# Competent NM522 Escherichia coli cells were transformed with the pTrc HLFMO 3 plasmid. […] After inoculation with a fresh overnight culture of NM522 containing pTrcHLFMO 3, the culture was grown at 37° C. until Abs600 was approximately 0.5 absorbance units. Finally, IPTG (0.8 mM) was added to the culture to induce expression of protein and the culture was left to grow overnight at 37° C.
# The bacterial pellet was resuspended in 5 volumes of 50 mM potassium phosphate buffer (pH 8.4) containing 1% Triton X-100, 0.1% L-, α-phosphatidylcholine (L-α-lecithin) from egg yolk, 500 μM PMSF, and 1 mM EDTA. The mixture was sonicated and then centrifuged to remove cellular debris. As a control, bacterial lysate extracts from IPTG-induced pTrc99A-transformed NM522 cells (i.e., pTrc99A without the HLFMO 3 cDNA insert) were prepared under the same conditions.
# Human liver samples were obtained from the Department of Surgery (UCSF) and with a protocol from the Medical College of Wisconsin (S. Wrighton).
# A typical incubation mixture (final volume 0.25 ml) contained hepatic microsomes (0.4 mg of protein) or bacterial lysate (2.3 mg of protein), NADP^+ (0.5 mM), glucose-6-phosphate (2.0 mM), glucose-6-phosphate dehydrogenase (1 IU), DETAPAC (0.8 mM) and potassium phosphate buffer (50 mM, pH 8.4). Reactions were initiated by the addition of substrate and terminated at designated times by the addition of three volumes of cold dichloromethane, mixed thoroughly and centrifuged to separate the aqueous and organic fractions. N- and S-oxide metabolic products in the resulting organic extracts were separated and quantified by HPLC. […] Thiobenzamide and thiobenzamide S-oxide were quantified with this same, HPLC system employing a mobile phase of methanol/acetonitrile/60% perchloric acid (20:80:0.016, v/v) which gave retention volumes of 2.7 and 7.0 ml, respectively. […] The major metabolites formed in the incubations were also subjected to mass spectral analysis after extraction of isolated HPLC fractions.
# RPLC of the S-oxide diastereomers with a Chiracel OT chiral analytical column (25 cm×0.15 cm inner diameter, Daicel Chemical Co., New York, N.Y.) was accomplished with a Beckman system, Kratos UV detector (240 nm) and a Hewlett Packard Integrator. […] Quantification was accomplished by comparing integrated HPLC peak areas after taking into account the difference in the extinction coefficients at 240 nm. Likewise, the cis and trans S-oxide diasteromers of (+)- and (−)-2-methyl-1,-benzodithiole were separated with a Chiracel OT chiral analytical column.
# Human Liver Microsomes = test: in vitro
compound,measurement,setting,value
CN(C)CCCCCN1c2ccccc2Sc2ccc(C(F)(F)F)cc21 [Compound 5],"N-oxide formation, Expressed HFLMO","[1]; 0.1 mM substrate, mean of 5 determinations ± SD",200.0 ± 45.7 pmol/min/mg of protein
same,N-oxygenase activity in the pellet,"[1]; 100,000×g pellet",0.043 nmol/min/mg of protein
same,share of N-oxygenase activity in the pellet,"[1]; 100,000×g pellet",16%
same,share of N-oxygenase activity in the supernatant fraction,"[1]; 100,000×g supernatant",84%
same,N-oxygenase activity in the supernatant fraction,"[1]; 100,000×g supernatant of solubilized recombinant HLFMO 3 protein",0.23 nmol/min/mg of protein
same,"Vmax, Expressed HLFMO","[1]; N- or S-oxide formation, for the 4-bromophenyl-1,3-oxathiolanes formation of the trans S-oxide",0.023 nmol/min/mg of protein
same,"substrate activity for human liver microsomes and expressed HLFMO 3, in words",[1]; human liver microsomes and solubilized protein from E. coli transformed with pTrcHLFMO 3,better substrates; also recorded: excellent substrates
same,Km,"[1]; read-out: Km, Expressed HLFMO, N- or S-oxide formation, for the 4-bromophenyl-1,3-oxathiolanes formation of the trans S-oxide",64.6 µM
same,Km,Human Liver Microsomes,6.8 µM
same,"N-oxide formation, Human Liver Microsomes",Human Liver Microsomes,252.1 ± 38.6 pmol/min/mg of protein
same,"S-oxide formation, Human Liver Microsomes",Human Liver Microsomes,32.5 ± 33.7 pmol/min/mg of protein
same,"Vmax, Human Liver Microsomes",Human Liver Microsomes,0.098 nmol/min/mg of protein
